The text below walks through data of publication PMC5320730, “Synthetic curcumin derivative DK1 possessed G2/M arrest and induced apoptosis through accumulation of intracellular ROS in MCF-7 breast cancer cells” (Cancer Cell International, 2017).

Usually IC50 stands for the concentration at which inhibition is half-maximal. A higher IC50 goes with weaker potency in that assay.

A value given as a limit tells only on which side of the number the result lay.

In experiment [1] the test system is MCF-7 cells. As to conditions: cited from earlier work; for SI value: on MCF-7.
The test system of experiment [2] is MCF-7 cells. Nature of the experiment: Flow cytometry AnnexinV-FITC/PI apoptosis analysis. In kind it is cell-based, human. How it is done:
Apoptosis of DK1 treated MCF-7 was compared with the control cell by Flow cytometry AnnexinV-FITC/PI apoptosis assay. Briefly, harvested cells were resuspended in 100 μL of 1× binding buffer and stained with 5 μL each of AnnexinV-FITC and propidiumiodide. After 15 min of incubation, the cells were added with 400 μL of 1× binding buffer and subjected to BD FACS Calibur flow cytometer analysis using BD Cell Quest Pro software (Becton–Dickinson, USA).

The subject of experiment [3] is PLK1, p21 and WEE-1 expression in MCF-7 cells. Nature of the experiment: qRT-PCR of cell cycle related genes. As to conditions: MCF-7, curcumin 30 µM, 72 h. (Real-time PCR tracks product formation cycle by cycle.)
The next experiment deals with HepG2 cells. Nature of the experiment: MTT cell viability assay, HepG2. It is filed as cell-based. As to conditions: Homo sapiens. How it is done: (§1) Promyelocytic leukemia HL60, hepatoblastoma HepG2, breast cancer MCF-7 and MDA-MB-231 cells were purchased from ATCC (USA) and cultured in RPMI-1640 media (Sigma, USA), supplemented with 10% fetal bovine serum (FBS) (PAA, USA). Normal epithelial MCF-10A cells (ATCC, USA) was maintain in DMEM-F12 (Sigma, USA) supplemented with hydrocortisone (0.5 μg/mL), insulin (10 μg/mL), human epidermal growth factor (hEGF) (20 ng/mL) (Sigma, USA) and 10% FBS (PAA, USA).
(§2) MTT cell viability assay was used to evaluate the effect of DK1 on viability of HL-60, HepG2, MCF-7, MDA-MB-231 and MCF-10A cells. Briefly, each type of cells (8 × 10^4cells/well) was seeded in 96-well plate in 37 °C CO2 incubator overnight. Then, DK1 was added at concentration ranging between 200 and 3.125 µM by twofold serial dilution. Untreated control was prepared simultaneously. After that, the cells were incubated for 24, 48 and 72 h at 37 °C in 5% CO2 incubator. After the incubation period, all well was added with 20 μL of MTT solution (5 mg/mL) and further incubated for 3 h. Subsequently, 170 μL of supernatant from each well was discarded, 100 μL of dimethyl sulfoxide (DMSO) was added to solubilize the purple formazan crystal and the absorbance was measured at a wavelength of 570 nm by Enzyme-linked immunosorbent assay (ELISA) plate reader (Bio-tek instruments, USA). All cell lines were assayed for three biological replicates each with triplicates. Percentage of cell viability was calculated using the following formula: Cell viability%=OD sample/OD control×100%
(§3) IC50 value (concentration of DK1 that reduce 50% of cell viability compared to control cell) was determined from the graph of cell viability (%) vs DK1 concentration. Subsequently, selective index, which indicating selectivity of DK1 against cancerous and normal breast cell lines, was calculated by: Selective indexSI=IC50of DK1on normal MCF-10A cell line/IC50on breast cancerous cell lineHL60/HepG2/MCF-7/MDA-MB-231

In a further experiment the test system is HL-60 cells. Nature of the experiment: MTT cell viability assay, HL-60. In kind it is cell-based. As to conditions: Homo sapiens, HL-60, MTT. How it is done: as §1, §2, §3
(In general: Formazan colour is commonly taken as a measure of viable cells.)

A further experiment has as its system MCF-10A cells. Nature of the experiment: MTT cell viability assay, normal MCF-10A. It is filed as cell-based. As to conditions: Homo sapiens. How it is done: as §1, §2, §3
In the next experiment the test system is p53 in MCF-7 cells. Nature of the experiment: Western blot analysis of p53. In kind it is cell-based, human. How it is done:
Total protein was extracted from harvested cell with Radioimmunoprecipitation assay (RIPA) buffer supplemented with phosphatase inhibitor cocktail (Roche, Canada) and the concentration was quantified by Bradford assay (Sigma, USA). Then, 100 μg of extracted protein was subjected to sodium dodecyl sulfate polyacrylamide gel electrophoresis (SDS-PAGE) (Bio-Rad, USA), transferred to nitrocellulose membrane, block with 0.5% skimmed milk overnight, washed with Tris-buffered saline tween (TBST) buffer and incubated with primary antibodies (anti-CDC2, anti-pCDC2 (Tyr15), anti-p53, and anti-β-actin at a dilution of 1:1000 (Abcam, USA) for 1 h. After that, membranes were washed, incubated with 1:5000 diluted goat anti-rabbit IgG H&L conjugated to […] (Abcam, USA) and developed under chemiluminescence condition (Super Signal West Pico, Pierce, USA) using the ChemiDoc XRS (Bio-Rad, USA). Differential level of evaluated protein in control and DK1 treated MCF-7 was calculated based on the bands intensity analyzed using the Quantity One 1D Analysis software (Bio-rad, USA).
For orientation: In western blotting, separated proteins are transferred to a membrane and probed.

Experiment [4] concerns MCF-7 cells. Nature of the experiment: MTT cell viability assay, MCF-7. In kind it is cell-based, human. As to conditions: for IC50: Homo sapiens, MCF7, MCF-7, MTT. How it is done:
as §1, §2, §3

The next experiment concerns MDA-MB-231 cells. Nature of the experiment: MTT cell viability assay, MDA-MB-231. It is filed as cell-based, human. As to conditions: for IC50: Homo sapiens, MDA-MB-231, MTT. How it is done:
as §1, §2, §3

Take 4-hydroxy tamoxifen: the SI in the experiment with MCF-7 cells [1] (normal vs cancerous cell line) is given as less than 2.

On to `O=C1c2ccccc2C(=O)c2c(O)cc(Br)cc21` [BHAQ, 3-Bromo-1-hydroxy-9,10-anthraquinone], for which, in the experiment with MCF-7 cells [1], the SI value is listed as 2.31.

Turning to `COc1cc(/C=C/C(=O)CC(=O)/C=C/c2ccc(O)c(OC)c2)ccc1O` [Curcumin, diferuloylmethane], the “late apoptosis, folds lower than DK1 treatment” value in the experiment with MCF-7 cells [2] (MCF-7, 72 h, curcumin 30 µM vs DK1 25 µM) is 2.6 folds. The compound also returned a late apoptosis in the experiment with MCF-7 cells [2] (MCF-7, curcumin 30 µM, 72 h, AnnexinV/PI) of 15%. In addition, the “deregulation of cell cycle regulation related genes compared to DK1” value in experiment [3] is given as “lower degree of deregulation”. Further, the IC50 was 67.9 ± 2.88 µM in the experiment on HepG2 cells (24 h); 40.7 ± 2.76 µM in the experiment with HepG2 cells (48 h); 24.4 ± 2.25 µM in the experiment with HepG2 cells (72 h); 57 ± 3.75 µM in the experiment with HL-60 cells (24 h); 29.9 ± 3.11 µM in the experiment with HL-60 cells (48 h); 21.7 ± 1.76 µM in the experiment with HL-60 cells (72 h). The IC50 in the experiment on MCF-10A cells (24 h) came to 190 ± 3.67 µM; in the experiment on MCF-10A cells (48 h), 114 ± 3.57 µM; in the experiment with MCF-10A cells (72 h) it was 100 ± 3.17 µM; in the experiment on MCF-7 cells [4] (24 h), 40.7 ± 3.24 µM; in the experiment on MCF-7 cells [4] (48 h), 36.6 ± 2.31 µM; with MCF-7 cells [4] (72 h), 30.2 ± 2.36 µM. The IC50 in the experiment with MDA-MB-231 cells (24 h) worked out at 35.3 ± 4.16 µM; with MDA-MB-231 cells (48 h), 21.7 ± 1.87 µM; in the experiment on MDA-MB-231 cells (72 h), 21.7 ± 3.18 µM. In addition, the “deregulation of apoptosis related genes or proteins, particularly p53, compared to DK1” value in the experiment on p53 in MCF-7 cells (MCF-7, curcumin 30 µM, 72 h) is listed as “lower degree of deregulation”. Further, the “significant upregulation of p53” value in the experiment on p53 in MCF-7 cells (curcumin treated MCF-7) is given as “absent”. The “Selective index of MCF-10A/MCF-7” value with MCF-7 cells [4] (IC50 MCF-10A / IC50 MCF-7, 24 h) was 4.67; in the experiment on MCF-7 cells [4] (IC50 MCF-10A / IC50 MCF-7, 72 h) it was 3.33. The “Selective index of MCF-10A/MDA” value with MDA-MB-231 cells (IC50 MCF-10A / IC50 MDA-MB-231, 24 h) amounted to 5.38; in the experiment on MDA-MB-231 cells (IC50 MCF-10A / IC50 MDA-MB-231, 48 h), 5.25; in the experiment with MDA-MB-231 cells (IC50 MCF-10A / IC50 MDA-MB-231, 72 h), 4.63.

With `COc1ccc(/C=C/C(=O)c2c(O)cc(OC)cc2OC)cc1` [flavokawain A], the SI value in the experiment on MCF-7 cells [1] is given as 3.78.
